Toxic doses and inconclusive results are not listed.
Test system: L1210 leukemia ip in BDF1 mice, survival T/C
Experiment: NCI In Vivo Anticancer Drug Screen. Data for tumor model L1210 Leukemia (intraperitoneal) in B6D2F1 (BDF1) mice
Conditions: endpoint: mean survival time, vehicle: saline with Tween-80, higher = longer survival
Summary of the method: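 Tumor was transplanted into mice, which were then dosed with test compound or vehicle alone. Survival was recorded for each group, and the treated figure was expressed relative to the control figure.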

SMILES | T/C (dose: 100.0 mg/kg/injection, schedule: Q01DX001 (ip)) | T/C (dose: 200.0 mg/kg/injection, schedule: Q01DX001 (ip)) | T/C (dose: 37.5 mg/kg/injection, schedule: Q04DX002 (ip)) | T/C (dose: 75.0 mg/kg/injection, schedule: Q04DX002 (ip))
O=C1c2cscc2Cc2ccsc21 | 88 % of control | 91 % of control |  | 
CSc1nnnc2ccccc12 |  |  | 113 % of control | 92 % of control
